Measurements published in US4582827A, “Pesticidal diphenylaziridines” (priority 1983, dated 1986).

What was measured:
[1] = tested on: Salmonella typhimurium strains TA 98, TA 100, TA 1535, TA 1537, TA 1538, TA 1978; assay: Ames assay (spot test), revertant colonies; format: cell-based
Description: This means that aziridine compounds, 1, 10, or 11, will not cause mutations in DNA arising from potential changes in frame shift and/or base pairing. Compounds 1, 10 and 11 were tested for mutagenic properties using the following experimental procedure.
Potential mutagenic and carcinogenic properties of the compounds were evaluated with standard Ames assay procedures (Ames et al, "Mutation Res.", 31, p. 347, 1975). This assay used strains of Salmonella typhimurium selected for sensitivity and specificity in being reverted from a histidine requirement back to prototrophy by a wide variety of mutagens. Potential changes in frameshift were evaluated using strains TA 98, TA 1537 and TA 1538, while changes in base pairing were detected using strains TA 100 and TA 1535. In addition, strain TA 1978 was used, in combination with TA 1538, to evaluate whether the agent killed bacteria by damage to DNA that could be repaired by this strain. Initially, the compounds were screened using the spot test, in which 1000 μgm of material dissolved in 10 μl of DNSO was applied to the middle of the plate.
Dose-response tests were not performed because the results were negative. All the tests were carried out in the presence and absence of an S9 rat liver preparation and contained a positive control (2-acetylaminofluorene,AAF) and a negative control (DMSO).

[2] = tested on: tobacco hornworm (Manduca sexta) larvae; assay: Tobacco hornworm growth and developmental responses to feeding on diets containing the compounds; format: in vivo; settings: for % Adult Emergence / % Malformed Adults / % Pupation / Days to Max Wt / Max Larval Wt / Mean No. of Eggs / No. of female Adults / feeding time required to attain reduced maximum weight / larval mortality / percent adult emergence / percent pupation / reduction in the maximum weight of hornworm larvae / wrinkled or crumpled wings of moths / mean number of eggs / Total No. of Adults: 5 mM in diet; for mean number of eggs: 4 day old females; for Total No. of Adults: all tests began with 15 larvae; for effects on tobacco hornworm development: summary of Tables I and II
Description: The compounds produced and described in Example 1 were then tested for pesticidal activity against the tobacco hornworm (Manduca sexta). The screening procedure for these tests began with the larval stage and continued through the pupal and adult stages and finally evaluated egg production. The studies thus permitted the evaluation of the effects of the compounds over several subsequent developmental stages in the total life cycle of the insect, giving estimates of acute toxicity (insecticidalor larvicidal activity) as well as prolonged or delayed effects on development (growth regulation) and reproduction (chemosterilization). The latter are of special importance in conjunction with the integrated pest management approach to insect control.
The test compounds were incorporated into the artificial diet of tobacco hornworm larvae and their subsequent growth and developmental responses were monitored using the following parameters: larval mortality including determination of LD50 values, rate of larval development and weight gain, percent pupation, pupal weight and degree of deformities, percent adult emergence and measures of reproductive capacity such as the number of developed ooctyes, fecundity and fertility. The protocol for the screening tests has been developed over a number of years by Dahlman et al., Comp. Biochem. Physiol. 51A, 33, (1975); Comp. Biochem. Physiol., 52A, 105 (1975); Ent. Exp. et Appl., 22, 123 (1977); Palumbo and D. L. Dahlman, J. Econ. Entomol. 71, 674 (1978); D. L. Dahlman, Ent. Exp. et Appl., 24, 327 (1978).
Each treatment used 15 newly ecdysed fifth-instar larvae. Death of larvae within a few hours to several days of initial exposure was considered to be acute toxicity. However, the compounds may reduce the maximum size attained by larvae and/or may retard growth so that larvae require additional time to attain their maximum size. Developmental parameters subsequent to the feeding stage also may be affected. […] Mortality may occur in the pupal stage or emerging adults may have wrinkled wings or other deformities. The number of eggs produced by treated females may be reduced and/or unfertile. Although acute toxicity is desirable in the control of any insect, the delayed effects which result in poor survival and reduced reproductive capacity are significant factors in the long-range program of pest management systems.
Continuous cultures of M. sexta are maintained according to the procedures of Yamamoto, J. Econ. Entomol., 62, p. 1427 (1969). Ingredients of the diet formulation include sugar, casein, wheat germ oil, cholesterol, salt mixture, yeast, vitamins, antioxidants and fungal inhibitors, such as ascorbic acid, sorbic acid, formaldehyde and methyl-p-benzoate. All are incorporated into a liquid agar base which, when poured into holding pans, solidifies to form an adequate substrate upon which the insect larvae feed. Nearly any test material can be uniformly incorporated into such a diet. Thus, exposure to experimental compounds can be evaluated during all or any part of the larval stage. In addition, chronic or long-term effects in subsequent life stages can also be monitored.
The results from these studies, in which the 1,2-diphenylaziridines of Example 1 were incorporated singly into the diet of M. sexta at a concentration of 5 mM are presented in the following Table I.

SMILES	% Adult Emergence [2] [%]	% Malformed Adults [2] [%]	% Pupation [2] [%]	Days to Max Wt [2]	Max Larval Wt [2]	Mean No. of Eggs [2]	No. of female Adults [2]	feeding time required to attain reduced maximum weight [2]	larval mortality [2]	percent adult emergence [2]	percent pupation [2]	reduction in the maximum weight of hornworm larvae [2]	wrinkled or crumpled wings of moths [2]	mean number of eggs [2]	Total No. of Adults [2]	effects on tobacco hornworm development [2]	other results
CC(=O)Nc1ccc2c(c1)Cc1ccccc1-2 [AAF, 2-acetylaminofluorene, reference compound]																	Mean number of revertant colonies per plate, TA 98 +S9 ([1]; strain TA 98, +S9): 284.7 colonies per plate; Mean number of revertant colonies per plate, TA 98 -S9 ([1]; strain TA 98, -S9): 32.7 colonies per plate; Mean number of revertant colonies per plate, TA 100 +S9 ([1]; strain TA 100, +S9): 78.0 colonies per plate; Mean number of revertant colonies per plate, TA 100 -S9 ([1]; strain TA 100, -S9): 25.3 colonies per plate; Mean number of revertant colonies per plate, TA 1535 +S9 ([1]; strain TA 1535, +S9): 19.7 colonies per plate; Mean number of revertant colonies per plate, TA 1535 -S9 ([1]; strain TA 1535, -S9): 15.7 colonies per plate; Mean number of revertant colonies per plate, TA 1537 +S9 ([1]; strain TA 1537, +S9): 14.7 colonies per plate; Mean number of revertant colonies per plate, TA 1537 -S9 ([1]; strain TA 1537, -S9): 7.7 colonies per plate; Mean number of revertant colonies per plate, TA 1538 +S9 ([1]; strain TA 1538, +S9): 313.7 colonies per plate; Mean number of revertant colonies per plate, TA 1538 -S9 ([1]; strain TA 1538, -S9): 14.7 colonies per plate; Mean number of revertant colonies per plate, TA 1978 +S9 ([1]; strain TA 1978, +S9): 358.3 colonies per plate; Mean number of revertant colonies per plate, TA 1978 -S9 ([1]; strain TA 1978, -S9): 196.3 colonies per plate
Brc1ccc(N2CC2c2ccccc2)cc1 (centres unmarked) [Compound 6]	47	27	53	9.2 ± .5 days	4.83 ± .42 g	7 ± 5	5	extended the feeding time	significant larval mortality	significantly lower than controls	a reduction in percent pupation	30-50%	observed in significant numbers of moths	significantly reduced the mean number of eggs	7	reduction in maximum larval weight, percent pupation, and mean number of eggs, and an increase in malformed adults	
c1ccc(C2CN2c2ccccc2)cc1 (centres unmarked) [Compound 7, 1,2-diphenylaziridine]	80	0	100	6.7 ± .2 days	9.29 ± .17 g	79 ± 19	10								12	had no effect	
O=[N+]([O-])c1cccc(C2CN2c2ccccc2)c1 (centres unmarked) [Compound 4]	100	7	100	5.1 ± .1 days	9.01 ± .17 g	67 ± 16	9								15	had no effect	
Clc1cccc(C2CN2c2ccc(Br)cc2)c1 (centres unmarked) [Compound 8]	53	50	60	7.8 ± .6 days	4.84 ± .19 g	1 ± 0	4	extended the feeding time	significant larval mortality	significantly lower than controls	a reduction in percent pupation	30-50%	observed in significant numbers of moths	significantly reduced the mean number of eggs	8	reduction in maximum larval weight, percent pupation, and mean number of eggs, and an increase in malformed adults	
